From patent US11716994B2, “Combinations of Yersinia entomophaga and pesticides or other substances” (priority 2017, dated 2023)
Where two headings read alike, the source gives them in different places.

Key:
fall armyworm [1] = assay: Leaf disk mortality assay, Y. entomophaga cells with chemical insecticides; details: for LT50 (95% confidence intervals) in days: 4th instar; for mortality at 0.59 µg/mL: Spodoptera frugiperda, foliar; for % Mort. Chem.: fall armyworm, Flubendiamide 0.59 mg/L
Yersinia entomophaga = assay: CFU counts after exposure of Yersinia entomophaga to insecticides; assay type: cell-based; details: 1 hour contact
In short: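 Insecticides at 1× (label-rate based) and 5× or 10× amounts were dried from ethyl acetate as a coat inside tubes. Diluted LB-grown Y. entomophaga culture (1 ml) was added and held 1 hour on the bench. Then 100 μl was plated in triplicate on LB and colonies were counted after 48 hours at 25° C.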

black cutworm [2] = assay: Leaf disk mortality assay, Y. entomophaga cells with chemical insecticides; details: for % Mort. Chem.: black cutworm
black cutworm [3] = details: flubendiamide 0.59 mg/L
Method: To produce cell free filtrates, cultures of Yersinia entomophaga grown in LB medium were centrifuged at 11,448 (g) for 10 minutes. The supernatant was decanted from the centrifuged pellet and filtered through a 0.22 μm filter. Assays were performed to determine concentrations of Yen-TC (toxin complex) using ELISA, and chitinase by measuring chitinase activity on specific substrates. […] This was done to estimate relative potency of the cell free filtrates. Insects were first pre-screened with a range of dilutions of cell free filtrates to select a concentration that provided moderate activity. […] Based on these initial screens, undiluted cell free filtrate was used for cabbage looper, fall armyworm, black cutworm, and Colorado potato beetle. […] In each of the Examples below, this is expressed as 1%.
Cabbage leaf disks were dipped in either acetone (controls and Y. entomophaga alone treatments) or in indoxacarb (Sigma 33969) at 0.53 mg/L in acetone. These were set to dry for 1 hr. […] After the cabbage disks had dried for 1 hr, a single 2nd instar black cutworm was added to each individual cabbage disk. A total of 20 insects were evaluate for each treatment. Insects were observed daily and scored as live or dead.
Cabbage leaf disks were dipped in either acetone (controls and Y. entomophaga alone treatments) or in flubendiamide (Sigma 32801) at 0.59 mg/L in acetone. These were set to dry for 1 hr. […] After the cabbage disks had dried for 1 hr, a single 2nd instar black cutworm was added to each individual cabbage disk. A total of 20 insects were evaluate for each treatment. Insects were observed daily and scored as live or dead.

fall armyworm [4] = assay: Cabbage leaf disk screening of chemical insecticide rates (flubendiamide alone), mortality; assay type: in vivo; details: 3rd instar
Excerpt: Chemical insecticides were first screened against insects at a range of rates/concentrations to determine which concentrations would provide a moderate level of activity against the insects. If the chemical rates are too high, it is difficult to observe additional effects provided by the addition of either live Y. entomophaga cells or cell free filtrates of Y. entomophaga cultures.
One example is provided for flubendiamide with fall armyworm. An initial rate was selected that would fall within an expected concentration of active ingredient per volume of water, as indicated on the label of insecticide products containing that active ingredient. For flubendiamide, a concentration of 58.5 mg/L was determined based on these criteria. To create this solution, first a 10× concentration solution was made by dissolving 58.5 mg in 100 mL of acetone. Then, 1:10 dilutions of this solution were made into acetone, resulting in concentrations of the compound of 58.5, 5.85, and 0.585 mg/L. Cabbage leaf disks were dipped in either acetone (controls) or concentrations of flubendiamide at 58.5, 5.85, or 0.585 mg/L in acetone. These were set to dry for 1 hr. […] A total of 10 insects were evaluated for each treatment. Insects were observed daily and the number of dead insects was visually determined (% Mortality).

diamondback moth = assay: whole plant or invertebrate; details: flubendiamide 0.059 mg/L; for mortality at 0.059 µg/mL: Plutella xylostella, foliar, Abbott's corrected
Excerpt: (§1) These were set to dry for 1 hr.
as §1
These were set to dry for 1 hr. Cabbage disks were then dipped in either 1% Luria broth (LB) media solution (controls and thiacloprid alone treatments) or in 1% cell free filtrate from a culture Y. entomophaga isolate O24G3R (Y. entomophaga alone or in combination with thiacloprid treatments).

[5] = 3rd instar, flubendiamide 0.20 mg/L, isolate O23ZMJ 1×10^4 cfu/mL
[6] = 3rd instar, flubendiamide 0.20 mg/L, isolate O348UX 1×10^4 cfu/mL
[7] = 3rd instar, flubendiamide 0.59 mg/L, isolate O43NEW 1×10^4 cfu/mL

In the case of `Cc1cc(C(F)(C(F)(F)F)C(F)(F)F)ccc1NC(=O)c1cccc(I)c1C(=O)NC(C)(C)CS(C)(=O)=O` [Flubendiamide], the “LT50 (95% confidence intervals)” value (fall armyworm [1]; 3rd instar, flubendiamide 0.59 mg/L, isolate O43NEW 1×10^6 cfu/mL) is reported as 18.28 days, the “LT50 (95% confidence intervals) in days” value (fall armyworm [1]; flubendiamide 0.59 mg/L, isolate O23ZMJ 1×10^5 cfu/mL) is reported as 7.46 (6.86-8.10) days and the “LT50 (95% confidence intervals) in days” value (fall armyworm [1]; flubendiamide 0.59 mg/L, isolate O24G3R 1×10^5 cfu/mL) is reported as 7.46 (6.86-8.10) days. For the same molecule, the “LT50 (95% confidence intervals) in days” value (fall armyworm [1]; flubendiamide 0.59 mg/L, isolate O348UX 1×10^5 cfu/mL) was 7.46 (6.86-8.10) days, the mortality at 0.59 µg/mL (fall armyworm [1]; 96 h, read-out: % Mortality (4DAT), 4th instar, flubendiamide 0.59 mg/L, isolate O23ZMJ 1×10^5 cfu/mL) was 0% and the mortality at 0.59 µg/mL (fall armyworm [1]; 96 h, read-out: % Mortality (4DAT), 4th instar, flubendiamide 0.59 mg/L, isolate O24G3R 1×10^5 cfu/mL) was 0%. For the same molecule, the mortality at 0.59 µg/mL (fall armyworm [1]; 96 h, read-out: % Mortality (4DAT), 4th instar, flubendiamide 0.59 mg/L, isolate O348UX 1×10^5 cfu/mL) was 0%, the mortality at 0.59 µg/mL (fall armyworm [1]; 120 h, read-out: % Mortality (5DAT), 4th instar, flubendiamide 0.59 mg/L, isolate O348UX 1×10^5 cfu/mL) was 30% and the mortality at 0.59 µg/mL (fall armyworm [1]; 144 h, read-out: % Mortality (6DAT), 3rd instar, flubendiamide 0.59 mg/L, isolate O43NEW 1×10^6 cfu/mL) was 0%. The mortality at 0.59 µg/mL (fall armyworm [1]; 144 h, read-out: % Mortality (6DAT), 4th instar, flubendiamide 0.59 mg/L, isolate O24G3R 1×10^5 cfu/mL) was 26%, the mortality at 0.59 µg/mL (fall armyworm [1]; 144 h, read-out: % Mortality (6DAT), 4th instar, flubendiamide 0.59 mg/L, isolate O348UX 1×10^5 cfu/mL) was 26% and the mortality at 0.59 µg/mL (fall armyworm [1]; 168 h, read-out: % Mortality (7DAT), 3rd instar, flubendiamide 0.59 mg/L, isolate O43NEW 1×10^6 cfu/mL) was 0%. For the same molecule, the mortality at 0.59 µg/mL (fall armyworm [1]; 264 h, read-out: % Mortality (11DAT), 3rd instar, flubendiamide 0.59 mg/L, isolate O43NEW 1×10^6 cfu/mL) was 18%, the mortality at 0.59 µg/mL (fall armyworm [1]; […], read-out: % Mortality (8DAT), 3rd instar, flubendiamide 0.59 mg/L, isolate O43NEW 1×10^6 cfu/mL) was 5% and the “% Mort. Chem.” value (fall armyworm [1]; 4 DAT) was 26%. For the same molecule, the “% Mort. Chem.” value (fall armyworm [1]; 6 DAT (row with O23ZMJ)) was 0%, the “% Mort. Chem.” value (fall armyworm [1]; 6 DAT (row with O348UX)) was 26% and the “% Mort. Chem.” value (fall armyworm [1]; 7 DAT) was 0%. For the same molecule, the “Average CFU” value (Yersinia entomophaga; 0.5 mg insecticide) was 328 CFU, the “Average CFU” value (Yersinia entomophaga; 5.0 mg insecticide) was 0 CFU and the “% Mortality (5DAT)” value (black cutworm [2]; 3rd instar black cutworm, flubendiamide 0.20 mg/L, Y. entomophaga isolate O24G3R 1 × 10^4 CFU/mL, 5 DAT, Abbott's corrected) was 31%. For the same molecule, the “% Mortality (6DAT)” value (black cutworm [2]; 3rd instar black cutworm, flubendiamide 0.20 mg/L, Y. entomophaga isolate O24G3R 1 × 10^4 CFU/mL, 6 DAT, Abbott's corrected) was 44%, the “% Mortality (7DAT)” value (black cutworm [2]; 3rd instar black cutworm, flubendiamide 0.20 mg/L, Y. entomophaga isolate O24G3R 1 × 10^4 CFU/mL, 7 DAT, Abbott's corrected) was 69% and the “LT50 (95% confidence intervals) in days” value (black cutworm [2]; 3rd instar black cutworm, flubendiamide 0.20 mg/L, Y. entomophaga isolate O24G3R 1 × 10^4 CFU/mL, Probit analysis) was 4.83 (4.34-5.37) days. For the same molecule, the “% Mortality (5DAT)” value (black cutworm [2]; [5]) was 31%, the “% Mortality (6DAT)” value (black cutworm [2]; [5]) was 44% and the “% Mortality (7DAT)” value (black cutworm [2]; [5]) was 69%. For the same molecule, the “LT50 (95% confidence intervals) in days” value (black cutworm [2]; [5]) was 4.83 (4.34-5.37) days, the “% Mortality (5DAT)” value (black cutworm [2]; [6]) was 31% and the “% Mortality (6DAT)” value (black cutworm [2]; [6]) was 44%. The “% Mortality (7DAT)” value (black cutworm [2]; [6]) was 69%, the “LT50 (95% confidence intervals) in days” value (black cutworm [2]; [6]) was 4.83 (4.34-5.37) days and the “% Mortality (4DAT)” value (black cutworm [2]; [7]) was 21%. For the same molecule, the “% Mortality (5DAT)” value (black cutworm [2]; [7]) was 22%, the “% Mortality (6DAT)” value (black cutworm [2]; [7]) was 44% and the “LT50 (95% confidence intervals) in days” value (black cutworm [2]; [7]) was 4.99 (4.53-5.48) days. The “% Mort. Chem.” value (black cutworm [2]; Flubendiamide 0.2 mg/L, 5 DAT (row with O23ZMJ)) was 31%, the “% Mort. Chem.” value (black cutworm [2]; Flubendiamide 0.2 mg/L, 5 DAT (row with O24G3R)) was 31% and the “% Mort. Chem.” value (black cutworm [2]; Flubendiamide 0.2 mg/L, 5 DAT (row with O348UX)) was 31%. The “% Mort. Chem.” value (black cutworm [2]; Flubendiamide 0.59 mg/L, 6 DAT) was 44%, the “LT50 (95% confidence intervals)” value (black cutworm [3]; 2nd instar black cutworm, undiluted O43NEW filtrate, Probit analysis) was 7.05 days and the “LT50 Chem.” value (black cutworm [3]; Black cutworm) was 7.05 days. For the same molecule, the “% Mort. Chem.” value (black cutworm [3]; Black cutworm, 7 DAT) was 42%, the “% Mortality (5DAT)” value (black cutworm [3]; black cutworm, undiluted O43NEW filtrate, 5 DAT, Abbott's corrected) was 0% and the “% Mortality (6DAT)” value (black cutworm [3]; black cutworm, undiluted O43NEW filtrate, 6 DAT, Abbott's corrected) was 37%. The “% Mortality (7DAT)” value (black cutworm [3]; black cutworm, undiluted O43NEW filtrate, 7 DAT, Abbott's corrected) was 42%, the “% Mortality (8DAT)” value (black cutworm [3]; black cutworm, undiluted O43NEW filtrate, 8 DAT, Abbott's corrected) was 53% and the “% Mortality (9DAT)” value (black cutworm [3]; black cutworm, undiluted O43NEW filtrate, 9 DAT, Abbott's corrected) was 74%. For the same molecule, the “% Mort (4DAT)” value (fall armyworm [4]; flubendiamide at 0.585 mg/L) was 0%, the “% Mort (5DAT)” value (fall armyworm [4]; flubendiamide at 0.585 mg/L) was 10% and the “% Mort (6DAT)” value (fall armyworm [4]; flubendiamide at 0.585 mg/L) was 10%. For the same molecule, the “% Mort (7DAT)” value (fall armyworm [4]; flubendiamide at 0.585 mg/L) was 10%, the “% Mort (8DAT)” value (fall armyworm [4]; flubendiamide at 0.585 mg/L) was 10% and the “% Mort (11DAT)” value (fall armyworm [4]; flubendiamide at 0.585 mg/L) was 20%. For the same molecule, the “% Mort (12DAT)” value (fall armyworm [4]; flubendiamide at 0.585 mg/L) was 30%, the “LT50 (95% confidence intervals)” value (fall armyworm [4]; flubendiamide at 0.585 mg/L) was 14.38 days and the “% Mort (4DAT)” value (fall armyworm [4]; flubendiamide at 5.85 mg/L) was 10%. For the same molecule, the “% Mort (5DAT)” value (fall armyworm [4]; flubendiamide at 5.85 mg/L) was 30%, the “% Mort (6DAT)” value (fall armyworm [4]; flubendiamide at 5.85 mg/L) was 90% and the “% Mort (7DAT)” value (fall armyworm [4]; flubendiamide at 5.85 mg/L) was 100%. The “% Mort (8DAT)” value (fall armyworm [4]; flubendiamide at 5.85 mg/L) was 100%, the “% Mort (11DAT)” value (fall armyworm [4]; flubendiamide at 5.85 mg/L) was 100% and the “% Mort (12DAT)” value (fall armyworm [4]; flubendiamide at 5.85 mg/L) was 100%. The “LT50 (95% confidence intervals)” value (fall armyworm [4]; flubendiamide at 5.85 mg/L) was 4.61 days, the “% Mort (4DAT)” value (fall armyworm [4]; flubendiamide at 58.5 mg/L) was 70% and the “% Mort (5DAT)” value (fall armyworm [4]; flubendiamide at 58.5 mg/L) was 90%. The “% Mort (6DAT)” value (fall armyworm [4]; flubendiamide at 58.5 mg/L) was 100%, the “% Mort (7DAT)” value (fall armyworm [4]; flubendiamide at 58.5 mg/L) was 100% and the “% Mort (8DAT)” value (fall armyworm [4]; flubendiamide at 58.5 mg/L) was 100%. The “% Mort (11DAT)” value (fall armyworm [4]; flubendiamide at 58.5 mg/L) was 100%, the “% Mort (12DAT)” value (fall armyworm [4]; flubendiamide at 58.5 mg/L) was 100% and the “LT50 (95% confidence intervals)” value (fall armyworm [4]; flubendiamide at 58.5 mg/L) was 2.88 days. The “LT50 (95% confidence intervals)” value (diamondback moth; 2nd instar diamondback moth, 1% O43NEW filtrate, Probit analysis) was 6.52 days, the “LT50 Chem.” value (diamondback moth; Diamondback moth) was 6.52 days and the “% Mort. Chem.” value (diamondback moth; Diamondback moth, 6 DAT) was 32%. The mortality at 0.059 µg/mL (diamondback moth; 96 h, read-out: % Mortality (4DAT), diamondback moth, 1% O43NEW filtrate, 4 DAT) was 16%, the mortality at 0.059 µg/mL (diamondback moth; 120 h, read-out: % Mortality (5DAT), diamondback moth, 1% O43NEW filtrate, 5 DAT) was 32% and the mortality at 0.059 µg/mL (diamondback moth; 144 h, read-out: % Mortality (6DAT), diamondback moth, 1% O43NEW filtrate, 6 DAT) was 32%. The mortality at 0.059 µg/mL (diamondback moth; 168 h, read-out: % Mortality (7DAT), diamondback moth, 1% O43NEW filtrate, 7 DAT) was 58% and the mortality at 0.059 µg/mL (diamondback moth; 264 h, read-out: % Mortality (11DAT), diamondback moth, 1% O43NEW filtrate, 11 DAT) was 67%.
